Reference: paper PMC8773213, “In Vitro Anticancer Activity and Mechanism of Action of an Aziridinyl Galactopyranoside” (Biomedicines, 2021)
Like-named read-outs stand apart in the source and are kept apart here.

What was measured:
[1] = tested on: AA8 cells (NER proficient); assay: MTT cell viability assay, AA8 cells; type: cell-based, Chinese hamster; settings: then 48 h in drug-free medium, read-out: IC50 (mean ± SEM), AA8 cells
Protocol: (§1) Exponentially growing cells were seeded in 96-well plates and allowed to attach and grow for 24 h. The cells were then treated with increasing concentrations of the tested drugs. At the end of the treatment period, cell viability was measured with the MTT assay or the resazurin assay, two widely used techniques.
(§2) In the case of the MTT assay, this technique detects viable cells using the ability of these cells to reduce the yellow tetrazolium MTT to an insoluble colored formazan product. Subsequently, this product was solubilized and analyzed by spectrophotometry. Dead cells cannot reduce the MTT into the colored formazan product. Briefly, 24 h after plating, cells were treated with the tested compounds for 48 h; except in experiments with DNA repair-proficient and -deficient cell lines, in which cells were only exposed for 24 h to drugs and allowed to grow for an additional 48 h in drug-free medium to allow them to repair possible DNA damage induced by the tested drugs. […] Finally, plates were incubated overnight at 37 °C and optical densities were measured at 540 nm using an absorbance spectrophotometer microplate reader.
(§3) In both assays, cell viability was expressed as percentage compared to untreated cells. Results were expressed as the means ± standard error of the mean (SEM). […]

[2] = tested on: UV4 cells (mutated in ERCC1, NER deficient); assay: MTT cell viability assay, UV4 cells; type: cell-based, Chinese hamster
Protocol: as §1, §2, §3

[3] = tested on: UV5 cells (mutated in ERCC2 (XPD), NER deficient); assay: MTT cell viability assay, UV5 cells; type: cell-based, Chinese hamster; settings: Cricetulus griseus, 24 h exposure, then 48 h in drug-free medium, read-out: IC50 (means ± SEM), UV5 cells
Protocol: as §1, §2, §3

UV4 and AA8 cells = assay: Clonogenic survival assay; type: cell-based, Chinese hamster; settings: 10 µM, 24 h, then colonies in drug-free medium
Protocol: Cell survival after treatment was determined by clonogenic assay. AA8 and UV4 cells were seeded in 6 cm Petri dishes 4 h prior to treatment for 24 h. After that, drugs were removed and cells were allowed to form colonies for eight days. The colonies were then stained with 0.4% methylene blue in methanol for 15 min. Surviving colonies made up of more than 50 cells per colony were counted. Results were represented as percentage of survival referred to untreated cells.

A549 cells = type: cell-based; settings: A549, 48 h, antioxidant added 1 h before; MTT
Protocol: as §1
In the case of the MTT assay, this technique detects viable cells using the ability of these cells to reduce the yellow tetrazolium MTT to an insoluble colored formazan product. Subsequently, this product was solubilized and analyzed by spectrophotometry. Dead cells cannot reduce the MTT into the colored formazan product. Briefly, 24 h after plating, cells were treated with the tested compounds for 48 h; except in experiments with DNA repair-proficient and -deficient cell lines, in which cells were only exposed for 24 h to drugs and allowed to grow for an additional 48 h in drug-free medium to allow them to repair possible DNA damage induced by the tested drugs. After the treatment period, the medium was removed, the cells were washed once with PBS and 125 μL MTT (1 mg/mL in medium) was added to each well. Plates were incubated for 2–4 h and then 80 μL 20% SDS in 0.02 M HCl was added to each well. Finally, plates were incubated overnight at 37 °C and optical densities were measured at 540 nm using an absorbance spectrophotometer microplate reader.
(§4) In both assays, cell viability was expressed as percentage compared to untreated cells. Results were expressed as the means ± standard error of the mean (SEM). All data are from at least three independent experiments.

A549 lung cancer cells = assay: MTT cytotoxicity of combinations, A549; type: cell-based; settings: 48 h
Protocol: as §1, §2, §3

[4] = tested on: VH10 (Human skin non-malignant cells); assay: Resazurin cell viability assay, VH10; type: cell-based; settings: 72 h, read-out: IC50 (Mean ± SEM, µM), VH10
Protocol: as §1
(§5) The resazurin assay is a redox-based colorimetric/fluorometric technique based on the ability of viable cells to reduce the blue compound resazurin into the pink, fluorescent and soluble product resorufin. The amount of resorufin produced is generally proportional to the number of living cells. In this assay, 24 h after seeding, cells were exposed to the tested drugs for 72 h. Then 100 μL resazurin in medium was added to each well (final concentration of 10 μg/mL) and, one hour later the fluorescence intensity was measured at 530/590 nm (excitation/emission) using a fluorescence microplate reader.
as §4

[5] = tested on: HeLa (Human cervical carcinoma cells); assay: Resazurin cell viability assay, HeLa; type: cell-based; settings: 72 h, read-out: IC50 (Mean ± SEM, µM), HeLa
Protocol: as §1, §5, §4

[6] = tested on: HepG2 (Human hepatocellular carcinoma cells); assay: Resazurin cell viability assay, HepG2; type: cell-based; settings: 72 h, read-out: IC50 (Mean ± SEM, µM), HepG2
Protocol: as §1, §5, §4

[7] = tested on: HL-60 (Human acute promyelocytic leukemia cells); assay: Resazurin cell viability assay, HL-60; type: cell-based; settings: 72 h, read-out: IC50 (Mean ± SEM, µM), HL-60
Protocol: as §1, §5, §4

[8] = tested on: NB4 (Human acute promyelocytic leukemia cells); assay: Resazurin cell viability assay, NB4; type: cell-based; settings: 72 h, read-out: IC50 (Mean ± SEM, µM), NB4
Protocol: as §1, §5, §4

[9] = tested on: PC3 (Human prostate cancer cells); assay: Resazurin cell viability assay, PC3; type: cell-based; settings: 72 h, read-out: IC50 (Mean ± SEM, µM), PC3
Protocol: as §1, §5, §4

[10] = tested on: SW480 (Human colon adenocarcinoma cells); assay: Resazurin cell viability assay, SW480; type: cell-based; settings: 72 h, read-out: IC50 (Mean ± SEM, µM), SW480
Protocol: as §1, §5, §4

[11] = tested on: U2OS (Human osteosarcoma cells); assay: Resazurin cell viability assay, U2OS; type: cell-based; settings: 72 h, read-out: IC50 (Mean ± SEM, µM), U2OS
Protocol: as §1, §5, §4

[12] = tested on: BJ-hTERT (hTERT-immortalized skin non-malignant BJ cells); assay: Resazurin cell viability assay, BJ-hTERT; type: cell-based; settings: Homo sapiens, 72 h, read-out: IC50 (Mean ± SEM, µM), BJ-hTERT
Protocol: as §1, §5, §4

[13] = tested on: BJ-SV40T (SV40T-transformed BJ-hTERT cells); assay: Resazurin cell viability assay, BJ-SV40T; type: cell-based; settings: Homo sapiens, 72 h, read-out: IC50 (Mean ± SEM, µM), BJ-SV40T
Protocol: as §1, §5, §4

[14] = tested on: cancer cell lines versus MRC-5 and VH10 normal cell lines; assay: Resazurin assay, panel of cancer cells versus normal cells; type: cell-based, human
Protocol: as §1, §5, §4
Next, we evaluated the cytotoxic activity of AzGalp in cancer cell lines derived from solid tumors (HeLa, PC3, U2OS, HepG2 and SW480) and from hematological malignancies (NB4 and HL-60). To study the selectivity against cancer cells, MRC-5 and VH10 cells were used as normal cell lines; 5-FU was used as a positive control. All cells were treated with AzGalp or 5-FU for 72 h and cell viability was evaluated with the resazurin assay. This assay was used to determine cell viability instead of the MTT assay because the HL60 and NB4 cell lines grow in suspension. […] Leukemia cell lines were approximately 15 times more sensitive than normal cells to the cytotoxicity of our aziridine.

Structure (SMILES): Cc1ccc(S(=O)(=O)N2CC2(C)CO[C@@H]2O[C@@H]3CO[C@H](c4ccccc4)O[C@@H]3[C@H](OCc3ccccc3)[C@H]2OCc2ccccc2)cc1 (stereo partly drawn) [AzGalp, 2-methyl-2,3-[N-(4-methylbenzenesulfonyl)imino]propyl 2,3-di-O-benzyl-4,6-O-(S)-benzylidene-β-D-galactopyranoside]
- IC50 ([1]; 24 h exposure): 319 ± 77.2 µM
- IC50 ([1]; Cricetulus griseus, CHO-AA8, 24 h exposure): 397 ± 142 µM
- IC50 ([2]; Cricetulus griseus, UV4, 24 h exposure, then 48 h in drug-free medium, read-out: IC50 (means ± SEM), UV4 cells): 58.6 ± 9.3 µM
- Sensitivity of NER-deficient cells relative to NER-proficient cells ([2]; UV4 and UV5 versus AA8): approximately six times more sensitive
- IC50 [3]: 38.6 ± 6.3 µM
- Cell survival, UV4 versus AA8 (clonogenic assay) (UV4 and AA8 cells): UV4 cells were more sensitive
- Effect of MnTMPyP on cytotoxicity (A549 cells): Neither MnTMPyP nor catalase prevented the cytotoxicity
- Effect of NAC on cytotoxicity (A549 cells): slightly prevented cytotoxic activity, it was not statistically significant
- Effect of catalase on cytotoxicity (A549 cells): Neither MnTMPyP nor catalase prevented the cytotoxicity
- Cytotoxicity of combination with 5-FU, cancer cells (A549 lung cancer cells; 100 μM AzGalp + 10 μM 5-FU): killed more cancer cells than when these drugs were administered individually
- Cytotoxicity of combination with oxaliplatin, cancer cells (A549 lung cancer cells; 100 μM AzGalp + 10 μM oxaliplatin): killed more cancer cells than when these drugs were administered individually
- IC50 [4]: 411 ± 39.4 µM
- IC50 [5]: 191 ± 35.8 µM
- IC50 [6]: 122 ± 12.4 µM
- IC50 [7]: 11.1 ± 0.9 µM
- IC50 [8]: 21.4 ± 9.9 µM
- IC50 [9]: 401 ± 14.8 µM
- IC50 [10]: 388 ± 30.9 µM
- IC50 [11]: 120 ± 8 µM
- IC50 [12]: 209 ± 24.2 µM
- IC50 [13]: 143 ± 8.1 µM
- Viability of leukemia cells ([14]; HL60 and NB4, concentrations between 10 and 100 µM, 72 h): 5%
- Viability of normal cells ([14]; MRC-5 and VH10, concentrations between 10 and 100 µM, 72 h): did not alter the viability of normal cells
- Sensitivity of leukemia cell lines relative to normal cells ([14]; NB4 and HL-60 versus MRC-5 and VH10, 72 h): approximately 15 times
- Cytotoxicity against HepG2 and U2OS relative to normal cell lines ([14]; versus MRC-5 and VH10, 72 h): approximately 2.5 times
